Results on two compounds are retold here after US20230181519A1, “Compositions And Methods For Treating Nicotine-Related Disorders And Symptoms Using Dihydromyricetin” (priority 2021, published 2023).

One test has as its target T1, α4β2-nAChRs (Homo sapiens, UniProt P17787+P43681).
T1 construct: expressed in transfected cells; host or cells: human SH-EP1 cells
Nature of the test: ACh-induced whole-cell currents of transfected α4β2-nAChRs in SH-EP1 cells. The conditions noted are these: DHM co-applied at different concentrations, SH-EP1 cells (FIG. 1). Format: cell-based. On the procedure:
In this example, the effects of DHM on transfected α4β2-nAChRs in human SH-EP1 cells (a model system to study human acetylcholine (“ACh”) receptors) were measured. Traces of ACh-induced whole-cell currents co-applied with different concentrations of DHM were created and examined.

The subject of test [1] is VTA DA neurons. Nature of the test: VTA dopamine neuronal firing in VTA slices (cell-attached recording). Format: cell-based, mouse. On the procedure: In this example, the effects of DHM on mouse ventral tegmental area (“VTA”) dopamine (“DPA”) neuronal firing in slices were measured.
In test [2] the test system is VTA DA neurons. As to the kind of experiment: VTA DA neuronal firing in anesthetized mice (in vivo recording). The conditions noted are these: i.v. The text has this: Part C is after in vivo recording. The recording site was dyed using blue-sky dye, and confirmed by cutting brain sections that contained VTA.
Test [3] deals with NIC-induced conditioned-place preference. As to the kind of experiment: NIC-induced conditioned-place preference (CPP). Format: in vivo. Here is the method: In this example, the effects of DHM on NIC-induced conditioned-place preference (“CCP”) were measured.
Part A is the CPP performance protocol.

The subject of a further test is C57BL/J mice. As to the kind of experiment: NIC-induced behavioral sensitization (local motor activity). The format is in vivo. On the procedure:
In this example, the effects of DHM on NIC-induced behavioral sensitization in mice were measured.
C57BL/J mice were repetitively treated with NIC (0.5 mg/kg, i.p.), and the local motor activities were measured.

The mark [4] stands for this setting: NIC 0.5 mg/kg, anesthetized mice (FIG. 3 B).
[5] abbreviates: NIC 0.5 mg/kg, i.p., repetitive, C57BL/J mice (FIG. 6).

Entries after “also recorded” stand apart in the source; their conditions may differ.

T1 sequence (P43681 29-627 limits assumed): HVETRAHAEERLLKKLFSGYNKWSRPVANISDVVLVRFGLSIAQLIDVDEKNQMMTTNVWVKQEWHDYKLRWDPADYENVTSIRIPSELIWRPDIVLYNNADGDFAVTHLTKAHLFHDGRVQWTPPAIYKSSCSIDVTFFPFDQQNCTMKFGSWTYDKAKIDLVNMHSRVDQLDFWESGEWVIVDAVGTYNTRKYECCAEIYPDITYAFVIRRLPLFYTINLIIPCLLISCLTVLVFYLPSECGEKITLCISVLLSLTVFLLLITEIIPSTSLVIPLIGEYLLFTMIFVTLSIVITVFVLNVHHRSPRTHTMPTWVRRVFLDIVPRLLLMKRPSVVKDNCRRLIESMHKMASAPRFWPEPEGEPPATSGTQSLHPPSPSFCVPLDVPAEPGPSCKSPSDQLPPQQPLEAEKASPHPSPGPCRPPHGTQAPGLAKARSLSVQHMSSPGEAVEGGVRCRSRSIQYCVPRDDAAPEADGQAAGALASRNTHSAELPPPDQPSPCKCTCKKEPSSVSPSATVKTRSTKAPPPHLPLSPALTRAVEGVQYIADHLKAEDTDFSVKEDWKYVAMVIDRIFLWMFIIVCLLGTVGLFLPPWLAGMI
T1 sequence (P17787 26-502): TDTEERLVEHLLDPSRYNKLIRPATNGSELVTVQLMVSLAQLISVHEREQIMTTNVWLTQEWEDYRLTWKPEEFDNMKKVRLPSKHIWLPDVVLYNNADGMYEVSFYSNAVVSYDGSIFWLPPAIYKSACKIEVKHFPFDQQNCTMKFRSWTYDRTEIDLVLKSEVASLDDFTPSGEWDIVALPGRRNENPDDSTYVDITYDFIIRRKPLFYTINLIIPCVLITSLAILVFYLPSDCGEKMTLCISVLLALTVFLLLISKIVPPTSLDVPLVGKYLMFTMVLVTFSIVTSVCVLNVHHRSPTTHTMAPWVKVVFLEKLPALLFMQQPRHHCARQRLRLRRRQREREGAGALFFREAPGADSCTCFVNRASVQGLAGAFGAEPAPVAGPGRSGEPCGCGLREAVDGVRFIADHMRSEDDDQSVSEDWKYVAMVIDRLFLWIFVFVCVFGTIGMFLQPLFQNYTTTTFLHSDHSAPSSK

In the case of `O=C1c2c(O)cc(O)cc2O[C@H](c2cc(O)c(O)c(O)c2)[C@H]1O` [DHM, dihydromyricetin], at α4β2-nAChRs, the a4b2-nAChR-mediated whole-cell currents entry is on record as “inhibited”. In the test with VTA DA neurons [1] (VTA slices (FIG. 2 C, D)), the “NIC-induced enhancement of AP firing rate, effect of DHM” value was “abolished; also recorded: prevented”. Moreover, the “DA neuron firing rate, effect of DHM itself” value with VTA DA neurons [1] (VTA slices, different concentrations of DHM (FIG. 2 D)) is “reduced DA firing”. For the same compound, the “DA neuronal firing rate, effect of DHM” value in the test on VTA DA neurons [2] (DHM 1 and 10 mg/kg, anesthetized mice (FIG. 4)) is listed as “reduced”. For the same compound, the “NIC-induced AP firing increase, effect of DHM” value in the test with VTA DA neurons [2] (DHM 1 and 10 mg/kg, anesthetized mice (FIG. 4 D)) is listed as “abolished”. The “NIC-induced CPP, overall” value in test [3] (FIG. 5) is on record as “significantly reduces; also recorded: inhibits”. Further, the “NIC-induced CPP after withdrawal 5 days of NIC (day 19)” value in test [3] (FIG. 5 B, C) is recorded as “abolished”. Besides, in test [3] (FIG. 5 C), the “NIC-induced CPP at test day (day 13)” value is “abolished”. Also, in the test with C57BL/J mice (NIC group vs NIC+DHM group (FIG. 7)), the “NIC-induced behavioral sensitization (local motor activity), effect of DHM” value is reported as “significantly reduced; also recorded: inhibits”.
As to `CN1CCCC1c1cccnc1` (stereo not shown) [NIC, nicotine], in the test on VTA DA neurons [1] (VTA slices, cell-attached recording (FIG. 2 A, B)), the “AP firing rate of DA neurons, effect of bath-applied nicotine” value is on record as “enhancement of AP firing rate”. Further, the “DA neuronal firing, time-frequency relationship after NIC” value with VTA DA neurons [2] (NIC 0.5 mg/kg, anesthetized mice (FIG. 3 A)) is listed as “an initial reduction following by a long-lasting increase”. In the test on VTA DA neurons [2] (setting [4]), the “AP firing rate after systemic injection of NIC” value is “enhanced”, the “bursting firing after systemic injection of NIC” value is given as “enhanced” and the “slow oscillations (SO) after systemic injection of NIC” value is recorded as “reduction”. In the test with C57BL/J mice (setting [5]), the “motor activity (total move distance) with repetitive injections of NIC” value is “increased”; the “motor activity after withdrawal at 5 and 10 days” value was “still maintained at a high level”.
